# Assay results as given in patent US20130131062A1, “PYRIDAZINONES AND FURAN-CONTAINING COMPOUNDS” (priority 2006, published 2013).
# pIC50: −log10 of the molar value. Where two headings read alike, the source gives them in different places.
# Assays:
# [1] = system: 15 non small cell lung cancer lines representing various EGFR and KRAS mutations; assay: Dose response studies against 15 NSCLC lines (alamar blue); format: cell-based, human
# Experimental: Dose response studies against 34 compounds from the pyridazinone and phenylfuran-carboxamide class were conducted. […] In addition, Tarceva was included in these dose response studies.
# The dose response studies were done with the following standard procedure. First, the cells were counted and dispensed at 250 cells/well into 384-well microplates with compound. The cells were incubated for 48 hours at 37 C to complete treatment, and then alamar blue was added for an additional 48 hours. Finally, alamar blue reduction was measured and the data was loaded into ORIS, our data screening acquisition platform.
# [2] = system: H1975; assay: Non Small Cell Lung Cancer Proliferation Assay (Alamar Blue); format: cell-based, human; conditions: for inhibition at 10 µM: Homo sapiens, NCI-H1975
# Experimental: (§1) Non Small Cell Lung Cancer cell lines are grown and maintained in Corning 175 cm2 flasks in RPMI 1640 media supplemented with 10% FBS, 1% antibiotic solution, 1% additional glutamine and pyruvate. These cells have a doubling time of 1-2 days. All cell types are adherent and grow in colonies. The cells should be kept at a density between 50,000 cells/mL-500,000 cells/mL to provide for optimum growth and adequate nutrition. The cell line should be maintained at 37° C. in a humidified atmosphere with 5% CO2 in a sterile cell culture incubator.
# (§2) To perform the assay, the Non Small Cell Lung Cancer lines are diluted in media and plated into 384 well microplates at a final density of 250 cells in 45 μL. To ensure consistency and minimal pipetting error, the cells are plated using the Multidrop 384 with the following settings: Rocker Switch set at 384, Volume 45 and Column 24.
# (§3) Low Controls for this assay are made by treating Non Small Cell Lung Cancer cells with 5 ul of staurosporine at 250 uM in 10% DMSO and 1% SDS. [Final concentration in this assay is 25 uM staurosporine in 1% DMSO and 0.1% SDS.]
# (§4) High Controls for this assay are made by treating Non Small Cell Lung Cancer cells with 5 ul of 10% DMSO. [Final concentration in this assay is 1% DMSO].
# (§5) The remaining wells of the 384 microplate may be treated with different compounds depending on the study. Important Note: All compounds for testing in this assay should be done at the final concentration of 1% DMSO.
# (§6) After addition, the cells are placed in cell culture incubator at 37° C. for 48 hours for complete treatment.
# (§7) After drug treatment, cytotoxicity is measured by Alamar Blue reduction. 5 μL of Alamar Blue is added to the 384 microplates using the Flexdrop.
# (§8) The cells are incubated for 48 hours at 37° C. to complete the Alamar Blue reduction.
# (§9) The final step in the assay is to measure the amount of Alamar Blue reduction. […] The Alamar Blue fluorescence is measured at an excitation of 530 nm and emission of 590 nm.
# (§10) For the NSCLC project, the cell based assay was screened against a small molecule library of approximately 200,000 compounds. The compound library is stored in our automated robotic freezer (Biophile) at −20° C. in 100% DMSO. Compound freeze and thaw cycles are kept to a minimum. Compounds for use are diluted into the appropriate concentration and plated into 384 well microplates using our custom built low volume 384-well head tool (TPS 384, Apricot Designs Inc., CA, USA). This assay was performed on a fully automated linear track robotic platform (CRS F3 Robot System, Thermo Electron Corp., Ontario, Canada) utilizing several integrated peripherals for plate handling, liquid dispensing, and readout detection. First, non-small cell lung cancer cell lines are dispensed into 384 well microplates (Corning #3712 Tissue Culture Treated Plate, Corning, N.Y., USA) with 5 μL of test compounds at 100 uM in 10% DMSO for screening studies or 1 mM in 10% DMSO to 50 nM in 10% DMSO for dose response studies. The microplates are then placed at 37° C. for 48 hours to complete treatment of cells with compounds. Next, 5 ul of alamar blue was added using a liquid dispenser (FlexDrop Precision Dispenser, Perkin Elmer, Mass., USA) and incubated for 48 hours at 37° C. The alamar blue prompt fluorescence was measured on Victor V (Victor^3 V, Perkin Elmer, Mass., USA) and output data files were loaded into ORIS (Oncology Research Informatics System, MSKCC, NY, USA), a screening data acquisition and analysis platform.
# [3] = system: H1650; assay: as above; format: cell-based, human; conditions: for inhibition at 10 µM: Homo sapiens, NCI-H1650
# Experimental: as §1, §2, §3, §4, §5, §6, §7, §8, §9, §10
# [4] = system: H3255; assay: as above; format: cell-based, human; conditions: for inhibition at 10 µM: Homo sapiens, NCI-H3255
# Experimental: (§11) These cells have a doubling time of 1-2 days. All cell types are adherent and grow in colonies. The cells should be kept at a density between 50,000 cells/mL-500,000 cells/mL to provide for optimum growth and adequate nutrition. The cell line should be maintained at 37° C. in a humidified atmosphere with 5% CO2 in a sterile cell culture incubator.
# (§12) To perform the assay, the Non Small Cell Lung Cancer lines are diluted in media and plated into 384 well microplates at a final density of 250 cells in 45 μL.
# as §4
# (§13) Important Note: All compounds for testing in this assay should be done at the final concentration of 1% DMSO.
# as §6
# (§14) After drug treatment, cytotoxicity is measured by Alamar Blue reduction.
# as §8, §9
# as §10, with “Compounds for use are diluted into the appropriate concentration and plated into 384 well microplates using our custom built low volume 384-well head tool (TPS 384, Apricot Designs Inc., CA, USA).” left out, “First, non-small cell lung cancer cell lines are dispensed into 384 well microplates (Corning #3712 Tissue Culture Treated Plate, Corning, N.Y., USA) with 5 μL of test compounds at 100 uM in 10% DMSO for screening studies or 1 mM in 10% DMSO to 50 nM in 10% DMSO for dose response studies.” left out
# [5] = system: H2030; assay: as above; format: cell-based, human; conditions: for inhibition at 10 µM: Homo sapiens, NCI-H2030
# Experimental: as §11, §12, §4, §13, §6, §14, §8, §9
# as §10, with “Compounds for use are diluted into the appropriate concentration and plated into 384 well microplates using our custom built low volume 384-well head tool (TPS 384, Apricot Designs Inc., CA, USA).” left out, “First, non-small cell lung cancer cell lines are dispensed into 384 well microplates (Corning #3712 Tissue Culture Treated Plate, Corning, N.Y., USA) with 5 μL of test compounds at 100 uM in 10% DMSO for screening studies or 1 mM in 10% DMSO to 50 nM in 10% DMSO for dose response studies.” left out
# [6] = in vitro; conditions: human, NHBE CytoTox (uM)
# Experimental: NHBE (normal human bronchiolar epithelial cells) are primary cells obtained from donor lungs and commercially available from Cambrex. The HPLID (human peripheral lung epithelial) cell line has been immortalized with the SV40 large T-antigen. WI-38: human lung fibroblast cell line. HPLID, NHBE and WI-38 cells will serve as controls in the chemical screens. WT: wildtype; WT*: over-expressed wildtype.
# Compounds were tested in dose response studies from 10 μM to 5 nM against several non small cell lung cancer lines: H358, H827, H1118, H1650, H1734, H1975, H2030, and H3255, and were also studied in a 72 hour cytotoxicity assay against the NHBE and WI-38 cell lines.
# [7] = HPL1D (SV40-immortalized human lung epithelian cells, EGFR WT, KRAS WT), 12 point doubling dilution 10 uM to 5 nM, alamar blue, read-out: IC50 HPL1D
# [8] = percentage inhibition, H1975, screening concentration of 10 μM compound in 1% DMSO (v/v), read-out: R1975 PRIMARY HTS [%]
# [9] = percentage inhibition, H1650, screening concentration of 10 μM compound in 1% DMSO (v/v), read-out: R1650 PRIMARY HTS [%]
# [10] = percentage inhibition, H3255, screening concentration of 10 μM compound in 1% DMSO (v/v), read-out: H3255 PRIMARY HTS [%]
# [11] = percentage inhibition, H2030, screening concentration of 10 μM compound in 1% DMSO (v/v), read-out: H2030 PRIMARY HTS [%]
# [12] = confirmation, percentage inhibition, 10 μM compound in 1% DMSO (v/v)
# [13] = Homo sapiens, read-out: IC50 H23
# [14] = Homo sapiens, read-out: IC50 H1118
# [15] = Homo sapiens, read-out: IC50 HPL1D
# [16] = Homo sapiens, read-out: IC50 PC9
# [17] = primary screening, 10 μM compound in 1% DMSO (v/v), read-out: percentage inhibition H1975
# [18] = primary screening, 10 μM compound in 1% DMSO (v/v), read-out: percentage inhibition H1650
# [19] = primary screening, 10 μM compound in 1% DMSO (v/v), read-out: percentage inhibition H3255
# [20] = primary screening, 10 μM compound in 1% DMSO (v/v), read-out: percentage inhibition H2030
# [21] = primary screening, 10 μM compound in 1% DMSO (v/v)
smiles,measurement,setting,value
Cc1cccc(NC(=O)c2ccc([N+](=O)[O-])o2)c1 [compound 71762],pIC50,[1]; [7],< 5.00
O=C(Nc1ccc(NC(=O)c2ccco2)c(Cl)c1)c1ccccc1 [compound 76839],inhibition at 10 µM,[2]; [8],3%
same,inhibition at 10 µM,[3]; [9],20%
same,inhibition at 10 µM,[4]; [10],2%
same,inhibition at 10 µM,[5]; [11],-6%
O=C(Nc1ccc(F)c(Cl)c1)c1ccc([N+](=O)[O-])o1 [compound 87200],pIC50,[1]; [7],< 5.00
Cc1ccc(NC(=O)c2ccc([N+](=O)[O-])o2)cc1 [compound 98697],CONFIRMATION [%] 3255,[4]; [12],130%
same,pIC50,[1]; [13],6.04
same,pIC50,[1]; [14],6.25
same,pIC50,[1]; [15],< 5.00
same,pIC50,[1]; [16],5.66
"O=C(Nc1ccc(Cl)cc1)c1ccc([N+](=O)[O-])o1 [compound 98698, 5-nitro-furan-2-carboxylic acid (4-chloro-phenyl)-amide]",CONFIRMATION [%] 1975,[2]; [12],57%
same,CONFIRMATION [%] 2030,[5]; [12],98%
same,pIC50,[1]; [13],6.22
same,pIC50,[1]; [14],6.28
same,pIC50,[1]; [15],< 5.00
same,pIC50,[1]; [16],5.80
"Cc1cccc(-n2ncc(Cl)c(Cl)c2=O)c1 [compound 104122, 4,5-dichloro-2-m-tolyl-2H-pyridazin-3-one]",IC50 at 72 h,[6],3.4 µM
same,pIC50,[1]; [13],6.68
same,pIC50,[1]; [14],6.47
same,pIC50,[1]; [15],6.55
same,pIC50,[1]; [16],6.19
Cc1cccnc1NC(=O)c1ccc([N+](=O)[O-])o1 [compound 108321],inhibition at 10 µM,[2]; [8],-7%
same,inhibition at 10 µM,[3]; [9],38%
same,inhibition at 10 µM,[4]; [10],2%
same,inhibition at 10 µM,[5]; [11],6%
O=c1c(Cl)c(Cl)cnn1-c1cccc(C(F)(F)F)c1 [compound 176729],pIC50,"[1]; Homo sapiens, PC9 (EGFR DclE746-A750, KRAS WT), 12 point doubling dilution 10 uM to 5 nM, alamar blue, read-out: IC50 PC9",6.05
O=c1c2c(cnn1-c1ccccc1)SC(c1ccccc1)S2 (stereo not shown) [compound 182826],inhibition at 10 µM,[2]; [17],12%
same,inhibition at 10 µM,[3]; [18],13%
same,inhibition at 10 µM,[4]; [19],-13%
same,inhibition at 10 µM,[5]; [20],-11%
N#Cc1ccccc1-n1nc(C(=O)c2cccs2)cc(-c2nc3ccccc3[nH]2)c1=N [compound 186926],inhibition at 10 µM,[2]; [17],81%
same,inhibition at 10 µM,[3]; [18],27%
same,inhibition at 10 µM,[4]; [19],52%
same,inhibition at 10 µM,[5]; [20],2%
Cc1c(Oc2ccccc2)nnn1-c1cnn(-c2ccccc2)c(=O)c1Br [compound 223337],percentage inhibition H1975,[2]; [21],5%
same,percentage inhibition H1650,[3]; [21],13%
same,percentage inhibition H3255,[4]; [21],61%
same,percentage inhibition H2030,[5]; [21],−14%
O=c1c(Cl)c(Cl)cnn1-c1ccccc1 [compound 257014],pIC50,[1]; [13],6.59
same,pIC50,[1]; [14],6.35
same,pIC50,[1]; [15],6.42
same,pIC50,[1]; [16],6.08
